Literature values as cited in article PMC3979036, “Autocrine IGF-I/insulin receptor axis compensates for inhibition of AKT in ER-positive breast cancer cells with resistance to estrogen deprivation” (Breast Cancer Research : BCR, 2013).

Target: InsR (insulin receptor) (Homo sapiens, UniProt P06213)
Test: autophosphorylation of human InsR in transfected CHO-T cells (AstraZeneca unpublished data)
Type: cell-based

InsR (insulin receptor), sequence (P06213 28-758): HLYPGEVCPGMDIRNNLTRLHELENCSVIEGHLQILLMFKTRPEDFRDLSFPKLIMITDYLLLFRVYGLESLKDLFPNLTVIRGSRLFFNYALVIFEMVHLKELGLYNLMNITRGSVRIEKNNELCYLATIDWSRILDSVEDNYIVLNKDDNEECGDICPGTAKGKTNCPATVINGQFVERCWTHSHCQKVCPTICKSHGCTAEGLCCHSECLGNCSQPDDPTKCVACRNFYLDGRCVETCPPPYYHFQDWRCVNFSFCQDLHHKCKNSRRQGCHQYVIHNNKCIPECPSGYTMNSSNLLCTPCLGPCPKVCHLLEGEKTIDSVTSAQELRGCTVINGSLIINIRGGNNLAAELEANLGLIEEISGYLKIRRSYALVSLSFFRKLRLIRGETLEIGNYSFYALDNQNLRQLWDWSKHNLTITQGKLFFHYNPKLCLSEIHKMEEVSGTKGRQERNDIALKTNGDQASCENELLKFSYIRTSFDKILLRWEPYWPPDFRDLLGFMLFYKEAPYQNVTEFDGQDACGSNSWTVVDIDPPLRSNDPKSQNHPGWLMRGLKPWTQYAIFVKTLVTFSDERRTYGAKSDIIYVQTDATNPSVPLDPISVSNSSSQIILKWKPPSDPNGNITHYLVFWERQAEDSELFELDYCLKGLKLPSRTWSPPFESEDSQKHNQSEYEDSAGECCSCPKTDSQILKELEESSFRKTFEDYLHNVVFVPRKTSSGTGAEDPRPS
InsR (insulin receptor), sequence (P06213 763-1382): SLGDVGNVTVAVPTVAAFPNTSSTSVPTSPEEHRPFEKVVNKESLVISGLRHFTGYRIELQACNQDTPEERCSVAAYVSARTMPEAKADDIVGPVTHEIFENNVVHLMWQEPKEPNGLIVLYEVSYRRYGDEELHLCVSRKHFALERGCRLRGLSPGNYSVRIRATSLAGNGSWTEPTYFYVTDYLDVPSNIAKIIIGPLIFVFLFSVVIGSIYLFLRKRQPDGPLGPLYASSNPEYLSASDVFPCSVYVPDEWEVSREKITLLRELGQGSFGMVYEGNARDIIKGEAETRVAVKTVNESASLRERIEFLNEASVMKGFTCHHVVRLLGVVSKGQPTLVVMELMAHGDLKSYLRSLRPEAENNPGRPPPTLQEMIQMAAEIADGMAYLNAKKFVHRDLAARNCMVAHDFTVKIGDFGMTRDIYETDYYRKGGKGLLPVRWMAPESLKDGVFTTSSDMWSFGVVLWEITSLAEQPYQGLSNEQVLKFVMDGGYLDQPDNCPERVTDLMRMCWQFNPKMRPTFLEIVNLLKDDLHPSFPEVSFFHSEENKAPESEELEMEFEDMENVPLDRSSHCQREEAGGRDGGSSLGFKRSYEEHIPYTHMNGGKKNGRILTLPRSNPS

For Cc1nn(C2CCN(C(=O)[C@@H](C)O)CC2)c(C)c1Nc1ncc(Cl)c(-c2cnn3ccccc23)n1 [AZD9362], the IC50 is listed as 186 nM.
